Patent US8741357B2, “Cosmetic or dermopharmaceutical composition comprising an euglena extract” (Sederma SAS, priority 2005, dated 2014)

Test system: Human keratinocytes
Assay: de novo IP3 synthesis in KHN cells (RIA)
Assay type: cell-based
Method: The IP3 produced by the cell is extracted with perchloric acid and assay is conducted by a RIA method based on competition for a specific IP3 binding protein between radioactive IP3 and cell extract IP3. The intracellular IP3 is assayed after stimulation with the extract of Euglena, vs.control. The positive control consists in Platelet-Activating Factor (PAF).
Human keratinocytes were cultured and incubated to 90% confluence. The cells were incubated in the presence of extract of euglena at various concentrations or the control for 1 minute.

For Platelet-Activating Factor [PAF], the IP3 (positive control, mean of n = 3) was 17.48 pmol/mL, the “Variation of IP3” value (positive control, relative to control) was 515 and the “IP3 production, result in words” value (vs control) was “stimulated IP3 production”.
